Here are results for seven compounds from patent publication US20240376124A1, “Macrocyclic Kinase Inhibitors” (Incyte Corporation, priority 2023, published 2024).

Experiment [1] addresses T1, pseudo-kinase domain (JH2, amino-acids 536-812) of human V617F mutant JAK2 (Homo sapiens, UniProt O60674, F794H/V617F/W659A/W777A).
T1 construct: pseudo-kinase domain (JH2, amino-acids 536-812 with 3 surface mutations W659A, W777A, F794H); His (C); purchased BPS Bioscience 79498; host or cells: baculovirus expression system
Kind of experiment: JAK2 LanthaScreen JH2-V617F Binding Assay. As to conditions: 50 nM tracer, read-out: JH2BINDING—V617F IC50. The method, then:
Example C. JAK2 LanthaScreen JH2-V617F Binding Assay
(§1) JAK2 JH2-V617F binding assay utilizes pseudo-kinase domain (JH2, amino-acids 536-812 with 3 surface mutations W659A, W777A, F794H) of human V617F mutant JAK2 expressed as C-terminal His-Avi-tagged, biotinylated protein in a baculovirus expression system (BPS Bioscience, Catalog #79498). The assay was conducted in black 384-well polystyrene plates in a final reaction volume of 20 μL. JAK2 JH2-V617F (0.26 nM) was incubated with compounds (100 nL serially diluted in DMSO) in the presence of 50 nM Fluorescent JAK2-JH2 Tracer (MedChem Express Catalog #HY-102055) and 0.25 nM Streptavidin-Tb cryptate (Cisbio Part #610SATLB) in assay buffer (50 mM Tris, pH=7.5, 10 mM MgCl2, 0.01% Brij-35, 0.1% BSA, 1 mM EGTA, 5% Glycerol and 5 mM DTT). Non-specific binding was accessed in the presence of 2 mM ATP. After incubation for 1 hour at 25° C., LanthaScreen signals were read on a PHERAstar FS plate reader (BMG LABTECH). Data was analyzed with IDBS XLfit and GraphPad Prism 5.0 software using a four parameter dose response curve to determine IC50 for each compound.
Background: TR-FRET usually uses a lanthanide donor and a delayed reading to cut background.

Experiment [2] addresses T2, pseudo-kinase domain (JH2, amino-acids 536-812) of human Wild Type JAK2 (Homo sapiens, UniProt O60674, F794H/W659A/W777A).
T2 construct: pseudo-kinase domain (JH2, amino-acids 536-812 with 3 surface mutations W659A, W777A, F794H); His (C); purchased BPS Bioscience 79463; host or cells: baculovirus expression system
Kind of experiment: JAK2 LanthaScreen JH2-WT Binding Assay. As to conditions: 50 nM tracer, read-out: JH2BIND_WT IC50. The method, then:
Example B. JAK2 LanthaScreen JH2-WT Binding Assay
as §1, with “JH2-WT” for “JH2-V617F”, “Wild Type” for “V617F mutant”, “#79463).” for “#79498).”, “JH2-WT (0.145” for “JH2-V617F (0.26”

For experiment [3], the target named is T3, catalytic domain (JH1, amino acids 826-1132) of human JAK2 (Homo sapiens, UniProt O60674).
T3 construct: catalytic domain (JH1, amino acids 826-1132) of human JAK2; FLAG (N); purchased Carna Biosciences 08-445-20N; host or cells: baculovirus expression system
Kind of experiment: JAK2 LanthaScreen JH1 binding assay. Conditions: JAK2 JH1, 50 nM tracer; read-out: JH1BIND IC50. The method, then: Example A. JAK2 LanthaScreen […] Binding Assay
JAK2 JH1 binding assay utilizes catalytic domain (JH1, amino acids 826-1132) of human JAK2 expressed as N-terminal FLAG-tagged, biotinylated protein in a baculovirus expression system (Carna Biosciences, Product #08-445-20N). The assay was conducted in black 384-well polystyrene plates in a final reaction volume of 20 μL. JAK2 JH1 (1.5 nM) was incubated with compounds (100 nL serially diluted in DMSO) in the presence of 50 nM fluorescent JAK2-JH1 tracer and 0.5 nM Streptavidin-Tb cryptate (Cisbio Part #610SATLB) in assay buffer (50 mM Tris, pH=7.5, 10 mM MgCl2, 0.01% Brij-35, 0.1% BSA, 1 mM EGTA, […] and 5 mM DTT). Non-specific binding was accessed in the presence of 2 mM ATP. After incubation for 2 hours at 25° C., LanthaScreen signals were read on a PHERAstar FS plate reader (BMG LABTECH).
Data was analyzed with IDBS XLfit and GraphPad Prism 5.0 software using a four parameter dose response curve to determine IC50 for each compound.

Experiment [4] deals with T4, catalytic domain (JH1, amino acids 808-1132) of human JAK2 (Homo sapiens, UniProt O60674).
T4 construct: catalytic domain (JH1, amino acids 808-1132) of human JAK2; His (N); purchased BPS Bioscience 40450; host or cells: baculovirus expression system
Description: JAK2 HTRF Enzyme Activity Assay. The format is biochemical. Conditions: ATP 30 μM; read-out: ENZ 30UMATP IC50. The method, then:
Example D. JAK2 HTRF Enzyme Activity Assay
JAK2 enzyme activity assays utilize catalytic domain (JH1, amino acids 808-1132) of human JAK2 expressed as N-terminal His-tagged protein in a baculovirus expression system (BPS Bioscience, Catalog #40450). The assays was conducted in black 384-well polystyrene plates in a final reaction volume of 20 μL. JAK2 (0.015 nM) was incubated with compounds (100 nL serially diluted in DMSO) in the presence of ATP (30 μM or 1 mM) and 500 nM Biotin-labeled EQEDEPEGDYFEWLE (SEQ ID NO.: 1) peptide (BioSource International, custom synthesis) in assay buffer (50 mM Tris, pH=7.5, 10 mM MgCl2, 0.01% Brij-35, 0.1% BSA, 1 mM EGTA, 5% Glycerol and 5 mM DTT) for 60 minutes at 25° C. The reactions were stopped by the addition of 10 μL of detection buffer (50 mM Tris, pH 7.8, 0.5 mg/mL BSA, 150 mM NaCl), supplemented with EDTA, LANCE Eu-W1024 anti-phosphotyrosine (PY20), (PerkinElmer, Catalog #AD0067) and Streptavidin SureLight APC (PerkinElmer Catalog #CR130-100), for a final concentration of 15 mM, 1.5 nM and 75 nM, respectively. HTRF signals were read after 30 minutes incubation at room temperature on a PHERAstar FS plate reader (BMG LABTECH). Data was analyzed with IDBS XLfit and GraphPad Prism 5.0 software using a four parameter dose response curve to determine IC50 for each compound. The compounds of the disclosure were tested in one or more of the assays described in Examples A-D, and the resulting data are shown in Table A.

pIC50: −log10 of the molar value.

T2 sequence (O60674 536-812 W659A/W777A/F794H): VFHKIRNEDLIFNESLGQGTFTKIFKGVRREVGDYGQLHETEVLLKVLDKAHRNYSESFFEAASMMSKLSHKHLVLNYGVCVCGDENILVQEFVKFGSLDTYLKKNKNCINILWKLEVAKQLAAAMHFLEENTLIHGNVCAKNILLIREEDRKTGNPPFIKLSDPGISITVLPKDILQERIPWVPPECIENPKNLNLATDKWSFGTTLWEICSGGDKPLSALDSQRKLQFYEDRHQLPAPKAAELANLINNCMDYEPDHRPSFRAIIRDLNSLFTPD
T3 sequence (O60674 826-1132): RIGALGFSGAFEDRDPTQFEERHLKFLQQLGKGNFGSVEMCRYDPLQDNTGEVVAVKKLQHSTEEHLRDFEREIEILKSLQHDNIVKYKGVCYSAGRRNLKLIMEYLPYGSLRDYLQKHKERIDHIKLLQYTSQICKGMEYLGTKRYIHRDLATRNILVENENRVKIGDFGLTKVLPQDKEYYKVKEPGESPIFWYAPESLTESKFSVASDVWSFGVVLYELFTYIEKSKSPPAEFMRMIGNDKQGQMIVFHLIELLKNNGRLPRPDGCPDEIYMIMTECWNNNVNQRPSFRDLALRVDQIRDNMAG
T1 sequence (O60674 536-812 V617F/W659A/W777A/F794H): as the sequence (O60674 536-812 W659A/W777A/F794H) above, with V82F counted along it
T4 sequence (O60674 808-1132): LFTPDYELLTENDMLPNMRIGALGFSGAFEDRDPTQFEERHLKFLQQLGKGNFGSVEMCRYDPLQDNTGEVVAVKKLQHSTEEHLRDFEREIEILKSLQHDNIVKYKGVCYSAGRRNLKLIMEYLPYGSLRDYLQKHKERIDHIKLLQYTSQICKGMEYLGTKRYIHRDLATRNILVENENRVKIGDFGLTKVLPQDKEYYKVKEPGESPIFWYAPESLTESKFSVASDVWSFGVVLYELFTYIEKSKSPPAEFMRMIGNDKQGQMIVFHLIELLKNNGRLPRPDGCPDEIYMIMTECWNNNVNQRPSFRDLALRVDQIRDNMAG

In the case of “N-((3^1r,3^4s)-2^7-(3-Methoxy-1-methyl-1H-pyrazol-4-yl)-2^3-(methyl-d3)-2^2-oxo-2^1,2^2,2^3,2^6-tetrahydro-8-oxa-2(8,1)-imidazo[4,5-d]pyrrolo[2,3-b]pyridina-1(1,4)-benzena-3(1,4)-cyclohexanacyclooctaphane-3^4-yl)cyclopropanecarboxamide [Example 5]”, the negative-log IC50 (pIC50) in experiment [1] was at least 8.00; in experiment [2], at least 8.00; in experiment [3] it was below 6.00; in experiment [4], below 6.00.

With `[2H]C([2H])([2H])n1c(=O)n2c3c4c(c(-c5cn(C)nc5OC)[nH]c4ncc31)-c1ccc(cc1)OC/C=C/C[C@]1(NC(=O)C3CC3)CC[C@@H]2CC1` [Example 1, N-((3^1s,3^4s,E)-2^7-(3-Methoxy-1-methyl-1H-pyrazol-4-yl)-2^3-(methyl-d3)-2^2-oxo-2^1,2^2,2^3,2^6-tetrahydro-8-oxa-2(8,1)-imidazo[4,5-d]pyrrolo[2,3-b]pyridina-1(1,4)-benzena-3(1,4)-cyclohexanacyclooctaphan-5-en-3^4-yl)cyclopropanecarboxamide], the negative-log IC50 (pIC50) is at least 8.00 in experiment [1], at least 8.00 in experiment [2], below 6.00 in experiment [3] and below 6.00 in experiment [4].

With `[2H]C([2H])([2H])n1c(=O)n2c3c4c(c(-c5cn(CC)nc5F)[nH]c4ncc31)-c1ccc(cc1)OCCC(O)CC[C@]1(NC(=O)[C@H]3C[C@H]3F)CC[C@@H]2CC1` (stereo partly drawn) [Example 9, (1R,2R)—N-((3^1S,3^4s)-2^7-(1-Ethyl-3-fluoro-1H-pyrazol-4-yl)-6-hydroxy-2^3-(methyl-d)-2^2-oxo-2^1,2^2,2^3,2^6-tetrahydro-9-oxa-2(8,1)-imidazo[4,5-d]pyrrolo[2,3-b]pyridina-1(1,4)-benzena-3(1,4)-cyclohexanacyclononaphane-3^4-yl)-2-fluorocyclopropane-1-carboxamide], the negative-log IC50 (pIC50) in experiment [1] is at least 8.00; in experiment [2], at least 8.00; in experiment [3] it was 6.00 to 6.30; in experiment [4], below 6.00.

Turning to `[2H]C([2H])([2H])n1c(=O)n2c3c4c(c(-c5cn(C)nc5OC)[nH]c4ncc31)-c1ccc(cc1)C1(/C=C/C[C@]3(NC(=O)C4CC4)CC[C@@H]2CC3)CC1` [Example 6, N-((1′s,4′s,E)-7′-(3-Methoxy-1-methyl-1H-pyrazol-4-yl)-3′-(methyl-d3)-2′-oxospiro[cyclopropane-1,7′-2(8,1)-imidazo[4,5-d]pyrrolo[2,3-b]pyridina-1(1,4)-benzena-3(1,4)-cyclohexanacycloheptaphanen]-5′-en-4′-yl)cyclopropanecarboxamide], the pIC50 in experiment [1] was at least 8.00; in experiment [2] it was at least 8.00; in experiment [3] it was below 6.00; in experiment [4] it was below 6.00.

Take “N-((3^1r,3^4s)-2^7-(3-Methoxy-1-methyl-1H-pyrazol-4-yl)-2^3-(methyl-d3)-2^2-oxo-2^1,2^2,2^3,2^6-tetrahydro-9-oxa-2(8,1)-imidazo[4,5-d]pyrrolo[2,3-b]pyridina-1(1,4)-benzena-3(1,4)-cyclohexanacyclononaphane-3^4-yl)cyclopropanecarboxamide [Example 4]”: the pIC50 was at least 8.00 in experiment [1], at least 8.00 in experiment [2], below 6.00 in experiment [3] and below 6.00 in experiment [4].

As for `[2H]C([2H])([2H])n1c(=O)n2c3c4c(c(-c5cn(C(C)C)nc5F)[nH]c4ncc31)-c1ccc(cc1)OCC/C=C/C[C@]1(NC(=O)[C@H]3C[C@H]3F)CC[C@@H]2CC1` [Example 13, (1R,2R)-2-fluoro-N-((3^1S,3^4s,E)-2^7-(3-fluoro-1-isopropyl-1H-pyrazol-4-yl)-2^3-(methyl-d3)-2^2-oxo-2^1,2^2,2^3,2^6-tetrahydro-9-oxa-2(8,1)-imidazo[4,5-d]pyrrolo[2,3-b]pyridina-1(1,4)-benzena-3(1,4)-cyclohexanacyclononaphan-5-en-3^4-yl)cyclopropane-1-carboxamide], the pIC50 in experiment [1] is at least 8.00; in experiment [2], at least 8.00; in experiment [3], below 6.00; in experiment [4], below 6.00.

`[2H]C([2H])([2H])n1c(=O)n2c3c4c(c(-c5cn(C)nc5OC)[nH]c4ncc31)-c1ccc(cc1)OCC/C=C/C[C@]1(NC(=O)C3CC3)CC[C@@H]2CC1` [Example 2, N-((3^1s,3^4s,E)-2^7-(3-Methoxy-1-methyl-1H-pyrazol-4-yl)-2^3-(methyl-d3)-2^2-oxo-2^1,2^2,2^3,2^6-tetrahydro-9-oxa-2(8,1)-imidazo[4,5-d]pyrrolo[2,3-b]pyridina-1(1,4)-benzena-3(1,4)-cyclohexanacyclononaphan-5-en-3^4-yl)cyclopropanecarboxamide]: the pIC50 was at least 8.00 in experiment [1], at least 8.00 in experiment [2], below 6.00 in experiment [3] and below 6.00 in experiment [4].

As a reminder, the pIC50 is the negative decadic logarithm of the IC50, by convention in mol/L.
